Key:
[1] = test system: serotonin 5-HT2A receptor; experiment: Early gene expression in mouse somatosensory cortex after drug injection, real-time PCR; format: in vivo; details: 1 h after i.p. exposure
[2] = test system: human serotonin 5-HT2A receptor; experiment: Gene response landscape of IRCs in HEK293 cells expressing 5-HT2A receptor; format: cell-based; details: 10 genes, 8 concentrations, 1 hour, HEK293 cells expressing 5-HT2A receptors
Protocol: FIG. 6 is the gene response landscape for 5-HT and DOI in HEK293 cells expressing 5-HT2A receptors. The levels of gene induction in response to 8 concentrations of each agonist for 10 genes were determined in quadruplicate samples. The height of each peak represents the level of gene induction, expressed as fold-change. […] For example, the rightmost peak is highest with DOI exposure, but is lower with 5-HT exposure.
HEK293 cells were genetically engineered to stably express the human serotonin 5-HT2A receptor. Replicate aliquots of cells were treated with varying concentrations of 5-HT and DOI and the levels of a panel of IRCS after 1 hour exposure were determined by SYBR® green real-time PCR.

[3] = test system: PC12 cells; experiment: IRC (c-fos, egr1) response to cytotoxin in PC12 cells by real-time PCR; format: cell-based, rat; details: 200 μM H2O2, 1 hour exposure
Protocol: The values shown are mean±s.e.m.
The samples assayed were the same as those used to generate FIG. 7.
(§1) This level of oxidative stress induced by H2O2 leads to cell death via apoptosis, as determined by increased Caspase 3 activity by 8 hours and a reduced MTT assay response at 24 hours. […] This would allow the prediction of the toxicity of a candidate drug in this cellular target by comparison of the pattern obtained with this drug to those observed with known toxins. Thus the toxins would generate a library of reference landscapes that would serve as predictors of the effects of candidate drugs. The comparison between candidate compounds and reference landscapes could be achieved by representing each IRC at one concentration as a different axis in a conceptual multidimensional space (or matrix) and determining the Euclidean distance between the location of the candidate response profile and that of the reference landscape. Candidates that are closer to the position of known toxins would be predicted to have a higher likelihood of inducing similar toxicity at the corresponding concentrations.

[4] = test system: PC12 cells; experiment: Cell death of PC12 cells under oxidative stress (Caspase 3 activity, MTT assay); format: cell-based, rat
Protocol: as §1

[5] = test system: PC12 cells that stably express the dopamine D2 receptor; details: 200 μM H2O2, 1 h, PC12-D2R cells
Protocol: Early genes β-actin, PC3, c-fos, and egr1 were assayed by real-time PCR.

Question: COc1cc(CC(C)N)c(OC)cc1I (centres unmarked) [DOI] was tested. Which “Induction of the 8 early genes in serotonin 5HT2A receptor gene-knockout mouse” value [1] did it give?
Answer: The value was “no induction was observed”.

Question: And the “Level of gene induction (fold-change) compared with 5-HT” value [2]?
Answer: Its value is “generally lower responses”.

Question: For OO [H2O2], which “cfos mRNA level” value [3] is on record?
Answer: Its value is “marked increase”.

Question: What about the “egr1 mRNA level” value [3] of the same compound?
Answer: The value was “marked increase”.

Question: What about the MTT assay response ([4]; 200 μM H2O2, at 24 hours) of the same compound?
Answer: The MTT assay response was “reduced”.

Question: What about the “Caspase 3 activity” value ([4]; 200 μM H2O2, by 8 hours) of the same compound?
Answer: The value was “increased”.

Question: And the “Early genes induced (β-actin, PC3, c-fos, egr1 assayed)” value [5]?
Answer: Its value is “Three genes were found to be induced at 1 h: PC3, c-fos, and egr1”.

Question: How did the “Induction of the 8 early genes in serotonin 5HT2A receptor gene-knockout mouse” value [1] turn out when CCN(CC)C(=O)[C@@H]1C=C2c3cccc4[nH]cc(c34)C[C@H]2N(C)C1 [LSD] was run?
Answer: The value was “no induction was observed”.

— US7723023B2, “Use of intrinsic reporters of cell signaling for high content drug profiling and toxicity screening” (Mount Sinai School of Medicine, priority 2001, dated 2010)
